# Laboratory results: patent US9884063B2, “Amido-substituted azole compounds” (Bayer Pharma Aktiengesellschaft, priority 2014, dated 2018)
# Key:
# TNKS2 = biological target: T1, TNKS2 (Homo sapiens, UniProt Q9H2K2); assay: Modified TNKS2 Assay 2 (auto-parsylation, [3H]-NAD+ SPA); type: biochemical; details: 6 nM TNKS2, 96 well
# T1 sequence (Q9H2K2 1-1166): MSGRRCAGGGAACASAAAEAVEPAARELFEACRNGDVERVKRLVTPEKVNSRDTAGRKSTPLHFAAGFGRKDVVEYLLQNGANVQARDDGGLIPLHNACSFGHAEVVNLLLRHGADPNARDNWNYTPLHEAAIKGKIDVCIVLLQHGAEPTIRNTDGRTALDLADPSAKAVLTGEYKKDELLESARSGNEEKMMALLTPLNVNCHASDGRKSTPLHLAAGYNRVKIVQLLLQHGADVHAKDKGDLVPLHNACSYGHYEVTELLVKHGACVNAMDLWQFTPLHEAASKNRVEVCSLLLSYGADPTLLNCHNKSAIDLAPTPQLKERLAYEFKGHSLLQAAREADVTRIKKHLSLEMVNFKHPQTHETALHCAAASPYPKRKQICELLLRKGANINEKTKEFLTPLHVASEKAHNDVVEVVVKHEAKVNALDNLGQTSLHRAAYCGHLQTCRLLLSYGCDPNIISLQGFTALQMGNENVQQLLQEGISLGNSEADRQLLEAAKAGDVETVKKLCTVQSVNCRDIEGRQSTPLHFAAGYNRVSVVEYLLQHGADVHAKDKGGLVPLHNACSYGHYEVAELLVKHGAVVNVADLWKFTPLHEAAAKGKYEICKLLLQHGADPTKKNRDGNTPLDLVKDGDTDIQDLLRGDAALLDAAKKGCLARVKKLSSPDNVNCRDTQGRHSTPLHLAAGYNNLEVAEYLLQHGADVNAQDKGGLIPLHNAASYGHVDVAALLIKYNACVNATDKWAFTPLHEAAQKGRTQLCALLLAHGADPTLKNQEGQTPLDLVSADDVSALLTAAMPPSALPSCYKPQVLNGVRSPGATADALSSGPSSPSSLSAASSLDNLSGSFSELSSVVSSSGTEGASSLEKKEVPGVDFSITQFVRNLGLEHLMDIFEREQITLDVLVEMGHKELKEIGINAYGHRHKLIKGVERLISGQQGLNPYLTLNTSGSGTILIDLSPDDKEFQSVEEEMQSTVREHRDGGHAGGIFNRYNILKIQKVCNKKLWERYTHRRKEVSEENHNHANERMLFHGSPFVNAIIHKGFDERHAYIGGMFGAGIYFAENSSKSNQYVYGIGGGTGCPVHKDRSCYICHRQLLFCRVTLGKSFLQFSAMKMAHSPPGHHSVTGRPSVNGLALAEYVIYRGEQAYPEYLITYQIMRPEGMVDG
# [1] = test system: wildtype Wnt signaling cascade; assay: HEK293 TOP Assay (Super TopFlash luciferase reporter, Wnt-3a stimulated); type: cell-based; details: HEK293 TOP reporter cell line, Wnt-3a at EC50, 16 hours incubation, compound dilution series 50 μM to 15 nM
# Outline: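 Compounds (50 μM down to 15 nM, 3.16-fold steps, in CAFTY buffer pH 7.4, 2 mM Ca2+, 0.01% BSA) tested in parallel on TOP and FOP HEK293 reporter lines to define selective wildtype Wnt inhibition. Pathway driven by recombinant human Wnt-3a applied at 2500–5 ng/ml in two-fold dilutions.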
IC50 (TNKS2),"IC50 ([1]; Homo sapiens, HEK293, 16 h)",IC50 [1],SMILES
150 nM,1550 nM,,"CC(CN1CCOCC1)NC(=O)c1[nH]cnc1C(=O)Nc1ccc(NC(=O)c2ccc(F)cc2)cc1 (centres unmarked) [Example 294, N^4-{4-[(4-fluorobenzoyl)amino]phenyl}-N^5-[1-(morpholin-4-yl)propan-2-yl]-1H-imidazole-4,5-dicarboxamide]"
> 10000 nM,3850 nM,,"CNC(=O)c1nc[nH]c1C(=O)Nc1ccc(NC(=O)c2ccc(F)c(Cl)c2)cc1 [Example 340, N^5-{4-[(3-chloro-4-fluorobenzoyl)amino]phenyl}-N^4-methyl-1H-imidazole-4,5-dicarboxamide]"
110 nM,710 nM,,"NCCNC(=O)c1[nH]cnc1C(=O)Nc1ccc(NC(=O)c2ccc(F)cc2Cl)cc1 [Example 290, N^5-(2-aminoethyl)-N^4-{4-[(2-chloro-4-fluorobenzoyl)amino]phenyl}-1H-imidazole-4,5-dicarboxamide]"
2200 nM,4950 nM,,"CNC(=O)c1nc[nH]c1C(=O)Nc1ccc(NC(=O)c2cccc(F)c2Cl)cc1 [Example 370, N^5-{4-[(2-chloro-3-fluorobenzoyl)amino]phenyl}-N^4-methyl-1H-imidazole-4,5-dicarboxamide]"
110 nM,570 nM,,"O=C(Nc1ccc(NC(=O)c2nc[nH]c2C(=O)NCCN2CCCCC2)cc1OC(F)(F)F)c1ccc(F)cc1Cl [Example 293, N^4-{4-[(2-chloro-4-fluorobenzoyl)amino]-3-(trifluoromethoxy)phenyl}-N^5-[2-(piperidin-1-yl)ethyl]-1H-imidazole-4,5-dicarboxamide]"
1200 nM,1120 nM,,"CNC(=O)c1nc[nH]c1C(=O)Nc1ccc(NC(=O)c2c(C)cccc2F)cc1 [Example 375, N^5-{4-[(2-fluoro-6-methylbenzoyl)amino]phenyl}-N^4-methyl-1H-imidazole-4,5-dicarboxamide]"
280 nM,750 nM,,"CC(C)N(CCNC(=O)c1nc[nH]c1C(=O)Nc1ccc(NC(=O)c2ccc(F)cc2Cl)cc1)C(C)C [Example 389, N^5-{4-[(2-chloro-4-fluorobenzoyl)amino]phenyl}-N^4-{2-[di(propan-2-yl)amino]ethyl}-1H-imidazole-4,5-dicarboxamide]"
> 10000 nM,8600 nM,,"CNC(=O)c1nc[nH]c1C(=O)Nc1ccc(NC(=O)c2ccc(F)c(Cl)c2F)cc1 [Example 359, N^5-{4-[(3-chloro-2,4-difluorobenzoyl)amino]phenyl}-N^4-methyl-1H-imidazole-4,5-dicarboxamide]"
20 nM,910 nM,,"O=C(Nc1ccc(NC(=O)c2nc[nH]c2C(=O)NCCN2CCC(F)(F)C2)cc1)c1ccc(F)cc1Cl [Example 279, N^4-{4-[(2-chloro-4-fluorobenzoyl)amino]phenyl}-N^5-[2-(3,3-difluoropyrrolidin-1-yl)ethyl]-1H-imidazole-4,5-dicarboxamide]"
3 nM,,40 nM,"CC(CN1CCOCC1)NC(=O)c1[nH]cnc1C(=O)Nc1ccc(NC(=O)c2ccc(F)cc2Cl)cc1 (single isomer, unassigned; enantiomer 2) [Example 270, N^4-{4-[(2-chloro-4-fluorobenzoyl)amino]phenyl}-N^5-[1-(morpholin-4-yl)propan-2-yl]-1H-imidazole-4,5-dicarboxamide (enantiomer 2)]"
940 nM,720 nM,,"CNC(=O)c1nc[nH]c1C(=O)Nc1ccc(NC(=O)c2ncccc2C)cc1 [Example 356, N^4-methyl-N^5-(4-{[(3-methylpyridin-2-yl)carbonyl]amino}phenyl)-1H-imidazole-4,5-dicarboxamide]"
> 10000 nM,50000 nM,,"CNC(=O)c1nc[nH]c1C(=O)Nc1ccc(NC(=O)c2ccon2)cc1 [Example 376, N^4-methyl-N^5-{4-[(1,2-oxazol-3-ylcarbonyl)amino]phenyl}-1H-imidazole-4,5-dicarboxamide]"
10 nM,140 nM,,"O=C(Nc1ccc(NC(=O)c2ocnc2C(=O)NCCN2CCCCC2)cc1)c1ccc(F)cc1Cl [Example 303, N^5-{4-[(2-chloro-4-fluorobenzoyl)amino]phenyl}-N^4-[2-(piperidin-1-yl)ethyl]-1,3-oxazole-4,5-dicarboxamide]"
> 10000 nM,50000 nM,,"CNC(=O)c1nc[nH]c1C(=O)Nc1ccc(NC(=O)c2cc(C)ccn2)cc1 [Example 363, N^4-methyl-N^5-(4-{[(4-methylpyridin-2-yl)carbonyl]amino}phenyl)-1H-imidazole-4,5-dicarboxamide]"
20 nM,80 nM,,"O=C(Nc1ccc(NC(=O)c2nc[nH]c2C(=O)NCCN2CCCCC2)cc1)c1ccccc1Cl [Example 381, N^4-{4-[(2-chlorobenzoyl)amino]phenyl}-N^5-[2-(piperidin-1-yl)ethyl]-1H-imidazole-4,5-dicarboxamide]"
> 10000 nM,280 nM,,"O=C(Nc1ccc(NC(=O)c2[nH]cnc2C(=O)NCCN2CCCCC2)cc1F)c1ccc(F)cc1 [Example 78, N^5-{3-fluoro-4-[(4-fluorobenzoyl)amino]phenyl}-N^4-[2-(piperidin-1-yl)ethyl]-1H-imidazole-4,5-dicarboxamide]"
> 10000 nM,2300 nM,,"O=C(Nc1ccc(NC(=O)c2[nH]cnc2C(=O)NCCC2CCCC2)cc1)c1ccc(F)cc1Cl [Example 42, N^5-{4-[(2-chloro-4-fluorobenzoyl)amino]phenyl}-N^4-(2-cyclopentylethyl)-1H-imidazole-4,5-dicarboxamide]"
> 10000 nM,50000 nM,,"CNC(=O)c1nc[nH]c1C(=O)Nc1ccc(NC(=O)c2cccc(Cl)n2)cc1 [Example 353, N^5-(4-{[(6-chloropyridin-2-yl)carbonyl]amino}phenyl)-N^4-methyl-1H-imidazole-4,5-dicarboxamide]"
450 nM,670 nM,,"CC1(C)CC(NC(=O)c2nc[nH]c2C(=O)Nc2ccc(NC(=O)c3ccc(F)cc3Cl)cc2)CCO1 (centres unmarked) [Example 391, N^5-{4-[(2-chloro-4-fluorobenzoyl)amino]phenyl}-N^4-(2,2-dimethyltetrahydro-2H-pyran-4-yl)-1H-imidazole-4,5-dicarboxamide]"
1300 nM,710 nM,,"CNC(=O)c1nc[nH]c1C(=O)Nc1ccc(NC(=O)c2cc(C(F)(F)F)ccc2Cl)cc1 [Example 352, N^5-(4-{[2-chloro-5-(trifluoromethyl)benzoyl]amino}phenyl)-N^4-methyl-1H-imidazole-4,5-dicarboxamide]"
330 nM,950 nM,,"CNC(=O)c1nc[nH]c1C(=O)Nc1ccc(NC(=O)c2cc(F)c(F)cc2C)cc1 [Example 377, N^5-{4-[(4,5-difluoro-2-methylbenzoyl)amino]phenyl}-N^4-methyl-1H-imidazole-4,5-dicarboxamide]"
2200 nM,720 nM,,"CNC(=O)c1nc[nH]c1C(=O)Nc1ccc(NC(=O)c2cc(C#N)ccc2F)cc1 [Example 349, N^5-{4-[(5-cyano-2-fluorobenzoyl)amino]phenyl}-N^4-methyl-1H-imidazole-4,5-dicarboxamide]"
1000 nM,410 nM,,"CNC(=O)c1nc[nH]c1C(=O)Nc1ccc(NC(=O)c2cc(Br)ccc2Cl)cc1 [Example 313, N^5-{4-[(5-bromo-2-chlorobenzoyl)amino]phenyl}-N^4-methyl-1H-imidazole-4,5-dicarboxamide]"
> 10000 nM,50000 nM,,"CNC(=O)c1nc[nH]c1C(=O)Nc1ccc(NC(=O)c2cncc(C)c2)cc1 [Example 366, N^4-methyl-N^5-(4-{[(5-methylpyridin-3-yl)carbonyl]amino}phenyl)-1H-imidazole-4,5-dicarboxamide]"
40 nM,310 nM,,"Cc1nc(C(=O)Nc2ccc(NC(=O)c3ccc(F)cc3Cl)cc2)c(C(=O)NCCN(C)C)[nH]1 [Example 66, N^4-{4-[(2-chloro-4-fluorobenzoyl)amino]phenyl}-N^5-[2-(dimethylamino)ethyl]-2-methyl-1H-imidazole-4,5-dicarboxamide]"
